Values of other authors, collected in patent US20150050250A1, “CELL THERAPY TECHNOLOGY TO DELIVER RADIO-PROTECTIVE PEPTIDES” (UNIVERSITY OF SOUTHERN CALIFORNIA, priority 2012, published 2015).

B1: Bowman Birk protease inhibitor (protein)
chain: DDESSKPCCDQCACTKSNPPQCRCSDMRLNSCHSACKSCICALSYPAQCFCVDITDFCYEPCKPSEDDKEN
modifications: Soybean

Assays:
fibroblasts = settings: BBI peptide at 20 μM added directly to the tissue culture medium

| Molecule | protection of fibroblasts from ionizing radiation (fibroblasts) | radioprotection of normal tissue in vivo (normal tissue) |
| --- | --- | --- |
| CALSYPAQCFC (portion of Soybean Bowman Birk protease inhibitor) [BBI peptide] | protected fibroblasts from ionizing radiation | – |
| B1 | – | selective radioprotection to normal tissue in vivo |
